# Columns and labels:
# [1] = test system: H460 (lung cancer cell line) and MCF7 (breast cancer cell line) cells; assay: Cell labeling with AFOH; format: cell-based; conditions: 30 μM AFOH overnight, FIG. 17B
# Protocol: Plates are coated with poly-L-Lysine and seeded with in Dulbecco's modified Eagle's medium with 5% fetal bovine serum. The cells are then treated with DMSO as a vehicle, or 30 μM AFOH is added and incubated at 37° C. overnight. Medium is then removed and cells are extracted into 500 μL of RIPA buffer containing Protease Inhibitor cocktail I (calbiochem). The supernatant is removed and used for western blotting.
# Protein concentration is determined using a Bradford reagent kit (Pierce) with 1:100 dilutions of the cell lysates. The proteins from the GGTaseI reaction mixtures or cell lysates are then separated using 12% SDS-polyacrylamide gels followed by transfer to nitrocellulose membranes. The membranes are incubated in blocking buffer PBS Casein and Tween buffer for one hour at room temperature, after which the following sequential steps are used: incubation with anti-AG or anti-NAG to 1:10,000 in PCT for one hour; 3×15 minute washes with vigorous shaking in PBS Tween buffer; incubation at room temperature one hour with goat anti-rabbit horseradish peroxidase-conjugated secondary antibody (Zymed) at a dilution of 1:20,000 in PCT buffer; and four 15 minute washes with PT buffer. The membranes are then subjected to enhanced chemiluminescene detection by incubation in 20 mL of detection buffer (Pierce Super Signal) for one minute.
# [2] = test system: human embryonic kidney (HEK-293) cells; assay: Acute cytoxicity of anilinogeraniol in HEK-293 cells; format: cell-based; conditions: up to 100 μM, three days, relative to controls
# Text: Farnesol, geranylgeraniol and a number of farnesol analogues become incorporated into cellular proteins when added to the culture media of growing cells. See e.g., Crick, et al. (1995) Biochem Biophys Res Commun 211, 590-9; Crick, et al. (1997) Biochem Biophys Res Commun 237, 483-7. These compounds are thought to traverse the plasma membrane and act as a substrate for sequential kinase reactions to give FPP, GGPP or the diphosphate analogue which can be then be utilized by FTase or GGTaseI to appropriately modify cellular proteins. Thai, et al. (1999) Proc Natl Acad Sci U S A 96, 13080-5. The kinases involved in the phosphorylation reactions have been characterized in plants, but not in mammalian cells. […] See Chehade, et al. (2000) J. Org. Chem. 65, […]. It is thought that nilinogeraniol might also cross the plasma membrane of cells, be converted to the diphosphate and become incorporated into proteins by FTase. However, it is also possible that anilinogeraniol might be toxic to mammalian cells. Accordingly, the acute cytoxicity of anilinogeraniol is examined by incubating human embryonic kidney (HEK-293) cells with up to 100 μM anilinogeraniol for three days.
# HEK-293 cells = assay: AGOH labeling and FTI inhibition of label in HEK-293 cells; format: cell-based, human
# Protocol: Plates are coated with poly-L-Lysine and seeded with HEK-cells in Dulbecco's modified Eagle's medium with 5% fetal bovine serum. Cells are incubated in medium containing 30 μM lovostatin and 10 μM GGOH for 24 hrs. The media is poured off then replenished with media without lovostatin and GGOH and are treated with 3 μM FTI-277 (calbiochem), 20 μM GGTI-2147 (calbiochem) or no inhibitor and incubated at 37° C. for 1 hour. DMSO as a vehicle, or 100 μM AGOH is then added and incubated at 37° C. for two hours. Medium is then removed and cells are extracted into 300 μL PBS containing Protease Inhibitor cocktail set 1 (Calbiochem). The samples are sonicated and centrifuged for 5 minutes. The supernatant is removed and used for western blotting.
# Cells are harvested by scraping into 300 μl phosphate buffered saline containing protease inhibitor cocktail set 1 (calbiochem), followed by sonication on ice. Protein concentration is determined using a Bradford reagent kit (Pierce). The proteins from the FTase reaction mixtures or cell lysates are then separated using 12% SDS-polyacrylamide gels followed by transfer to nitrocellulose membranes. […]
# HEK-cells = assay: AGOH incorporation into unblocked cells; format: cell-based, human; conditions: 30 μM AGOH, no lovastatin blockade
# Protocol: Plates are coated with poly-L-Lysine and seeded with HEK-cells in Dulbecco's modified Eagle's medium with 5% fetal bovine serum. The cells ware then treated with DMSO as a vehicle, or 30 μM AGOH 5a is then added and incubated at 37° C. for the indicated time points. Medium is then removed and cells are extracted into 300 μL PBS containing Protease Inhibitor cocktail set 1 (Calbiochem). The samples are sonicated and centrifuged for 5 minutes. The supernatant is removed and used for western blotting.
# Cells are harvested by scraping into 300 μl phosphate buffered saline containing protease inhibitor cocktail set 1 (calbiochem), followed by sonication on ice. Protein concentration is determined using a Bradford reagent kit (Pierce). The proteins from the FTase reaction mixtures or cell lysates are then separated using 12% SDS-polyacrylamide gels followed by transfer to nitrocellulose membranes. The membranes are incubated in blocking buffer PCT (see ELISA) for one hour at room temperature, after which the following steps are used: incubation with Anti-AG 1:1000 to 1:10,000 in PCT for one hour; 3×15 minute washes with vigorous shaking in PT buffer (see ELISA); incubation at room temperature one hour with goat anti-rabbit horseradish peroxidase-conjugated secondary antibody (Zymed) at a dilution of 1:20,000 in PCT buffer; and four 15 minute washes with PT buffer. […]
# FTase [3] = biological target: T1, FTase (Homo sapiens, UniProt P49354+P49356); assay: FTase catalyzed in vitro modification of RDJ2 and H-Ras; format: biochemical; conditions: bacterially expressed proteins, intact Ca1a2X motifs
# Protocol: 2 μg of recombinant bacterially expressed RDJ2 is incubated with 20 μM AGPP or FPP and 5 μg FTase in 50 μL of TrisHCl buffer (pH=7.4). […] The reactions are incubated for 30 min at 37° C., boiled with SDS and PAGE performed using the protein concentrations indicated on the blots.
# FTase [4] = biological target: T1, FTase; conditions: in vitro; cited from earlier work
# GGTaseI [5] = biological target: GGTaseI (Homo sapiens, UniProt P49354+P53609); assay: GGTaseI continuous spectrofluorometric assay with dansylated-GCaaX peptides; format: biochemical; conditions: for Substrate for GGTaseI with CVIL peptide: dansylated-GCVIL peptide; for Substrate for GGTaseI with CVIM peptide: dansylated-GCVIM peptide; for Substrate for GGTaseI: peptide not specified
# Protocol: The kinetic constants Km^peptide and kcat with GGPP, and the analogs with each peptide are determined in triplicate measurements using a continuous spectrofluorometric assay adapted for a 96-well plate. The following assay components are assembled in individual wells of a 96-well plate and incubated at 30° C. for 20 minutes: 180 μL of assay butler (52 mM Tris-HCl, 12 mM MgCl2, 12 μM ZnCl2 pH 7.4), 40 μL of detergent (0.125% n-dodecyl-β-D-maltoside in assay buffer), 40 μL of reducing agent (50 mM DTT in assay buffer) 20 μL of GGPP or analog (200 μM in 25 mM NH4HCO3) and 20 μL of N-dansyl-GCaaX peptide (variable concentration). Fluorescence is detected using a time based scan at 30° C. for 120 minutes. The velocity of each reaction is determined by converting the rate of increase in fluorescence intensity units (FLU/s) to μM/s with equation 1. vi=(R·P)/(FMAX−FMIN) Equation 1
# Where vi is the velocity of the reaction in μM/s. R is the rate of the reaction in FLU/s. P is equal to the concentration of modified product in μM (see below). FMAX is the fluorescence intensity of fully modified product. FMIN is the fluorescence of a reaction mixture that contained 20 μL of assay buffer in the place of GGTaseI. Complete modification of peptides is assumed when fluorescence stabilized for more than 10 minutes and is confirmed by RP-HPLC analysis of the reaction mixture.
# Final analysis peptide concentrations are chosen based on preliminary determination of the Km^peptide with 0.5, 1, 5 and 10 μM dansyl-GCaaX concentrations (see below). The final analysis used 8 peptide concentrations which are: ⅙, ⅕, ¼, ½, ¾, 1, 2, and 3 times the estimated Km^peptide. The reaction is then initiated by the addition of 20 μL of GGTaseI (final 10 nM). Fluorescence enhancement is determined as described above.
# Complete modification of peptides is assumed when fluorescence stabilized for more than 10 minutes and is confirmed by RP-HPLC analysis of the reaction mixture. […] Alternatively the extent of input peptide modified is determined by RP-HPLC analysis of the dansyl moiety peak absorbance corresponding to the unmodified and modified peptides. The percent of modified peptide relative to the total input peptide is used to calculate the concentration of product in the mixture.
# The velocities of the reactions are plotted against the concentration of peptide and are fit to the Michaelis-Menten equation (Equation 2) to give the apparent kcat (appkcat) and Km^peptide (appKmpeptide) values. Where et is the total enzyme concentration and [Pep] is the total input peptide. The kcat/Km^peptide value is derived from a Lineweaver-Burke plot of the same data points. vi/et=(appkcat*[Pep])/(appKm^peptide+[Pep]) Equation 2
# GGTaseI [6] = assay: GGTaseI protein substrate modification of H-Ras; format: biochemical; conditions: relatively large amount of GGTaseI, Western blot FIG. 17A
# anti-AG antibody = assay: Western analysis of H-Ras modified by FTase with aniline analogs, probed with Anti-AG; format: binding, rabbits; conditions: H-Ras reacted with analog by FTase, FIG. 11A
# Protocol: Cells are harvested by scraping into 300 μl phosphate buffered saline containing protease inhibitor cocktail set 1 (calbiochem), followed by sonication on ice. Protein concentration is determined using a Bradford reagent kit (Pierce). The proteins from the FTase reaction mixtures or cell lysates are then separated using 12% SDS-polyacrylamide gels followed by transfer to nitrocellulose membranes. The membranes are incubated in blocking buffer PCT (see ELISA) for one hour at room temperature, after which the following steps are used: incubation with Anti-AG 1:1000 to 1:10,000 in PCT for one hour; 3×15 minute washes with vigorous shaking in PT buffer (see ELISA); incubation at room temperature one hour with goat anti-rabbit horseradish peroxidase-conjugated secondary antibody (Zymed) at a dilution of 1:20,000 in PCT buffer; and four 15 minute washes with PT buffer. The membranes are then subjected to enhanced chemiluminescence detection by incubation in 20 mL of detection buffer (Pierce Super Signal) for one minute.
# anti-NAG antibodies = assay: Western analysis of H-Ras modified by FTase with aniline analogs, probed with Anti-NAG; format: binding, rabbits; conditions: H-Ras reacted with analog by FTase, FIG. 11B
molecule,measurement,setting,value
"CC(=CCO)CCC=C(C)CCC=C(C)CNc1ccccc1 [AFOH, Anilinofarnesiol]",AFOH incorporation into cellular proteins,[1],does appear to be incorporated into proteins
"C/C(=C\CO)CC/C=C(\C)CNc1ccccc1 [AGOH, Anilinogeranyl alcohol]",Cell growth,[2],no decrease in cell growth
same,Morphological changes,[2],no morphological changes
same,Anilinogeranyl modified proteins detected with Anti-AG in cell extracts,"HEK-293 cells; cells blocked with lovostatin and treated with GGOH, 100 μM AGOH, FIG. 12",numerous anilinogeranyl modified proteins
same,Competition with endogenous pools of FPP,HEK-cells,competitive with the endogenous pools of FPP
same,Onset of anilinogeranyl incorporation into proteins,HEK-cells; FIG. 14,within two hours
"C/C(=C\COP(=O)(O)OP(=O)(O)O)CC/C=C(\C)CNc1ccccc1 [AGPP, anilinogeranyl diphosphate]",FTase catalyzed in vitro modification of RDJ2 and Q61L H-Ras,FTase [3],provided lipid thioether-linked proteins
same,Transferable by FTase to a CVLS substrate,FTase [4],transferable
"COC(=O)[C@H](CCSC)NC(=O)c1ccc(NC[C@@H](N)CS)cc1-c1ccccc1 [FTI-277, reference compound]",Effect of inhibitor on anilinogeranyl modification of cellular proteins,"HEK-293 cells; cells incubated with AGOH, 3 μM FTI-277 or 20 μM GGTI-2147",no anilinogeranyl modified proteins are detected
"CC(C)=CCC/C(C)=C/CC/C(C)=C/CC/C(C)=C/COP(=O)(O)OP(=O)(O)O [GGPP, geranylgeranyl diphosphate, reference compound]",Substrate for GGTaseI with CVIL peptide,GGTaseI [5],confirmed to be a substrate
same,Substrate for GGTaseI with CVIM peptide,GGTaseI [5],confirmed to be a substrate
"CC(=CCCC(C)=CCOP(=O)(O)OP(=O)(O)O)CCC=C(C)CNc1ccc([N+](=O)[O-])cc1 [NAFPP, pNO2-anilinofarnesyl diphosphate]",Substrate for GGTaseI with CVIL peptide,GGTaseI [5],are substrates when CVIL is the target
same,Substrate for GGTaseI with CVIM peptide,GGTaseI [5],none of the AGPP analogs or NAFPP are substrates
same,Substrate for GGTaseI,GGTaseI [5],both substrates
same,Incorporation of analog into H-Ras in vitro,GGTaseI [6],incorporated into the protein
"C/C(=C\COP(=O)(O)OP(=O)(O)O)CC/C=C(\C)CNc1ccc([N+](=O)[O-])cc1 [NAGPP, para-nitro-anilinogeranyl diphosphate]",FTase catalyzed in vitro modification of RDJ2 and Q61L H-Ras,FTase [3],provided lipid thioether-linked proteins
"CC(=CCC/C(C)=C/COP(=O)(O)OP(=O)(O)O)CNc1ccc(F)cc1 [pF-AGPP, para-fluoro-anilinogeraniol diphosphate]",Recognition of analog-modified H-Ras by anti-AG antibody,anti-AG antibody,able to cross-react
anilinofarnesyl diphosphate [AFPP],Substrate for GGTaseI,GGTaseI [5],both substrates
same,Incorporation of analog into H-Ras in vitro,GGTaseI [6],incorporated into the protein
meta-bromo-anilinogeranyl diphosphate [mBr-AGPP],Recognition of analog-modified H-Ras by anti-AG antibody,anti-AG antibody,able to cross-react
meta-cyano-anilinogeranyl diphosphate [mCN-AGPP],Recognition of analog-modified H-Ras by anti-NAG antibodies,anti-NAG antibodies,recognized
same,Recognition of analog-modified H-Ras by anti-AG antibody,anti-AG antibody,able to cross-react
meta-fluoro-anilinogeranyl diphosphate [mF-AGPP],Recognition of analog-modified H-Ras by anti-AG antibody,anti-AG antibody,able to cross-react
meta-methyl-anilinogeranyl diphosphate [mMe-AGPP],Recognition of analog-modified H-Ras by anti-AG antibody,anti-AG antibody,able to cross-react
ortho-fluoro-anilinogeranyl diphosphate [oF-AGPP],Recognition of analog-modified H-Ras by anti-AG antibody,anti-AG antibody,able to cross-react
para-bromo-anilinogeranyl diphosphate [pBr-AGPP],Recognition of analog-modified H-Ras by anti-NAG antibodies,anti-NAG antibodies,recognized
same,Recognition of analog-modified H-Ras by anti-AG antibody,anti-AG antibody,able to cross-react
para-cyano-anilinogeranyl diphosphate [pCN-AGPP],Recognition of analog-modified H-Ras by anti-NAG antibodies,anti-NAG antibodies,recognized
para-methyl-anilinogeranyl diphosphate [pMe-AGPP],Recognition of analog-modified H-Ras by anti-AG antibody,anti-AG antibody,able to cross-react

# From patent publication US7745589B1, “Antibodies and unnatural substrates of prenylation enzymes for use in detecting and isolating prenylated proteins” (University of Kentucky Research Foundation, priority 2005, dated 2010)
